From US11707557B2, “Compositions and devices incorporating water-insoluble therapeutic agents and methods of the use thereof” (COOK MEDICAL TECHNOLOGIES LLC, priority 2014, dated 2023)

Assays:
pig bladder tissue [1] = experiment: Uptake of docetaxel or paclitaxel into pig bladder tissue from EGCG or tannic acid solutions (Franz cells); type: in vitro ADME; conditions: drug 200 microg/ml in EGCG or tannic acid at 50 mg/ml, urothelial side, 2 hours
Description: Methods: Fresh ex vivo pig bladders were cut into 2 cm diameter pieces and laid on franz diffusions cells. […] The solutions were then made up in tyrodes buffer pH 7.4 and 400 ul was placed on the urothelial side of the tissue for 2 hours. The tissues were then frozen and cryosectioned for radioactivity counting by liquid scintillation methods.

pig bladder tissue [2] = experiment: Uptake of paclitaxel or docetaxel into pig bladder tissue from triblock or diblock copolymer-MEPEG pastes; type: in vitro ADME; conditions: EGCG or tannic acid loaded triblock copolymer paste, perivesicular side, 2 hours
Description: Methods: Fresh ex vivo pigs bladders were cut into 2 cm diameter pieces and laid on franz diffusions cells. […] The synthesis of the diblock copolymer is described in example X and is composed of a MEPEG molecule of 2000 molecular weight with polylactic acid at a molecular weight of 1330. The triblock copolymer was synthesized in house and has a composition of 35/35/30 (polycaprolactone, polylactic acid, polyethylene glycol with a total molecular weight of 4600. The triblock was synthesized by heating a mixture of caprolactone (Sigma chemicals) lactic acid (Polysciences) and Polyethylene glycol (Sigma molecular weight 1380) to 120° C. under nitrogen overnight followed by cooling and washing in hexane or cold ethanol. 100 mg of paste was applied to the perivascular side of the bladder tissue and 200 ul of tyrodes buffer pH 7.4 was added. The tissue was incubated for 2 hours at 37° C. and then the diffusion cell was disassembled, the tissue was washed free of remaining paste with excess tyrodes and the tissues were then frozen and cryosectioned for radioactivity counting by liquid scintillation methods.

pig skin = tested on: pig skin
Description: Various gallate-containing drug formulations were prepared and applied to ex vivo pig skin samples. Fresh pig skin was obtained from a local butcher, processed within three hours and then frozen. For experiments, the skin was slowly thawed, excess fat removed from the base, and cut into 1×2 cm squares. These squares were mounted and clamped on Franz diffusion cells, which kept the tissue moist and isolated and exposed a 6 mm diameter of the upper skin surface for the application of a drug loaded formulation. Skin samples were then frozen and later cryosectioned in 50 μm slices. The drug in the slices was extracted and measured by HPLC or radioactive doping methods. A drug depth profile was then established for each drug.
1. Formulations containing a drug and a gallate. The drugs were dissolved in ethanol at various concentrations along with either EGCG or TA (500 mg/mL). Each solution was pipetted into 6×5 mm diameter aluminum cups (approximately 3 mm in height) by filling and allowing the ethanol to evaporate at 50° C. until all the solution was used up (80 mg per cup).
2. Formulations containing a drug, propylene glycol (“PG”) and a gallate. 300 mg of propylene glycol was mixed with 200 mg of EGCG or TA until dissolved. Various amounts of drug were added to this mixture and dissolved. 80 mg of the resulting viscous solution was weighed into 6×5 mm aluminum cups.
3. Control Formulations. Control formulations were prepared using Glaxal base and Plogel. Glaxal base is a cream used by compounding pharmacists to manufacture topical formulations of drugs. Plogel is an alternative used for dermal formulations. […] Drug was added to a known weight of Glaxal or Plogel and levigated to produce a standard drug dispersion. These formulations were prepared the evening before the experiment. For some drugs, radioactive drug (where available) was also added as a doping additive to facilitate quantitation in tissues.
Eutectics: In some cases, gallate containing compounds and drugs were formulated in eutectic mixtures. These included a 60:40 (% w/w) mixture of menthol with ibuprofen. These agents acted as a carrier for retinoic acid, which was then dissolved in this liquid. The 3-drug eutectic/solution was then blended into the CMC/poloxamer emulsion containing EGCG (2.5%). […] The emulsion was stabilized with poloxamer.
Example 29. Pig skin studies. Aluminum cups containing drug formulations were inverted on top of the pig skin in the Franz diffusion cell so that the formulation contents were in contact with the skin. […]
Analysis. […] The amount of drug in each group of skin sections was then determined using HPLC methods, or by radioactivity counting on a liquid scintillation counter. The amount of drug in each group of skin sections was expressed as μg/g or mg/g of tissue.

[3] = Drug release from injectable PG:gallate pastes (60:40) into PBS; type: physicochemical; conditions: 60:40 PG:EGCG or PG:tannic acid, 2% w/w drug, PBS pH 7.4, 37° C.
Description: Methods: 60:40% w/w PG:EGCG or PG:tannic acid was used in these studies. 588 mg of propylene glycol was weighed into a 20 mL glass vials and 392 of EGCG or tannic acid was added followed by vortexing to distribute and dissolve the gallates. The vials were warmed to 60° C. and vortexed until all the contents were in solution. At this time 20 mg of drug was added (2% w/w) and vortexed until in solution. The following drugs were used: paclitaxel, docetaxel, retinoic acid, amphotericin B, and curcumin. 100 mg of each paste was weighed into the base of a 15 mL glass test tube and 10 mL of phosphate buffered saline was added at pH 7.4 and the tubes were incubated at 37° C. for certain times. All 10 mL of the PBS release media was removed and 1 mL analyzed by HPLC for drug content. 10 mL of fresh PBS was then added to all tubes

mdck-mdr cells = experiment: Uptake of paclitaxel into drug resistant mdck-mdr cells with or without EGCG; type: cell-based, canine

Structure (SMILES)	drug penetration through bladder tissue (pig bladder tissue [1])	penetration into the bladder tissue (pig bladder tissue [2])	drug uptake by pig skin relative to controls (pig skin)	drug release from PG:gallate paste [3]	paclitaxel level in cells (mdck-mdr cells; co-incubated with EGCG at 50 microg/ml)	paclitaxel level in cells (mdck-mdr cells; paclitaxel alone)	increase in drug uptake with EGCG (mdck-mdr cells; with EGCG versus alone)	drug uptake by pig skin (pig skin)
CC(=O)O[C@@]12CO[C@@H]1C[C@H](O)[C@@]1(C)C(=O)[C@H](O)C3=C(C)[C@@H](OC(=O)[C@H](O)[C@@H](NC(=O)OC(C)(C)C)c4ccccc4)C[C@@](O)([C@@H](OC(=O)c4ccccc4)[C@H]21)C3(C)C [docetaxel]	high levels of drug penetration	allowed for the penetration	higher levels of uptake as compared to the control formulations	relatively controlled release of the drug over 24 hours	–	–	–	–
CC(=O)O[C@H]1C(=O)[C@@]2(C)[C@H]([C@H](OC(=O)c3ccccc3)[C@]3(O)C[C@H](OC(=O)[C@H](O)[C@@H](NC(=O)c4ccccc4)c4ccccc4)C(C)=C1C3(C)C)[C@]1(OC(C)=O)CO[C@@H]1C[C@@H]2O [paclitaxel]	high levels of drug penetration	allowed for the penetration	–	relatively controlled release of the drug over 24 hours	≤ 2000 pg/mg	< 200 pg/mg cellular protein	10 fold	low levels of drug uptake
